Measured values as given in PMC6748986, “Potent modulation of the CepR quorum sensing receptor and virulence in a Burkholderia cepacia complex member using non-native lactone ligands” (Scientific Reports, 2019).

Columns and labels:
CepR [1] = target: T1, CepR (Burkholderia cenocepacia, UniProt B4EMD0); assay: CepR antagonism in E. coli β-galactosidase reporter (Ec-reporter), competition against C8-AHL; assay type: cell-based, B. cenocepacia; conditions: for CepR antagonism in words: Ec-reporter; for Inh% (100-Act%): Table S3, Ec-reporter
T1 sequence (B4EMD0 1-239): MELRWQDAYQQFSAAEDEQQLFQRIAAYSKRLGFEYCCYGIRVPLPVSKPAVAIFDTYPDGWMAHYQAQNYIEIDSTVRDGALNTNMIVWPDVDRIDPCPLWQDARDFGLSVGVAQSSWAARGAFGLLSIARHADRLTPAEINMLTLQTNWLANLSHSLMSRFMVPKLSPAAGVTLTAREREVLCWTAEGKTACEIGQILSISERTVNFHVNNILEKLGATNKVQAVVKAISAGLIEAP
Source text: (§1) We began our study by screening the AHL library for CepR modulators using an E. coli-based two plasmid reporter system (Ec-reporter)[38]–[40]. Certain members of the Bcc harbor additional QS systems that are either AHL-based (e.g., BviI/BviR in B. vietnamiensis)[41] or diffusible signal factor (DSF)-based (B. cenocepacia)[42], and at least one member of the Bcc has multiple receptors that respond to C8-AHL (e.g., CepR and CepR2 in B. cenocepacia)[43]. Thus, we reasoned that using a CepR reporter in a heterologous background could simplify our initial analyses. We modified our previously reported E. coli-based two plasmid β-galactosidase reporter system to develop a CepR Ec-reporter (see Methods). The first plasmid, pJN105-cepR, contains CepR from B. cenocepacia under the control of the L-arabinose inducible pBAD promoter. A second plasmid contains a transcriptional fusion of lacZ to the cepI promoter region. The two plasmids were co-transformed into a QS mutant E. coli strain (JLD271 ∆sdiA) that lacks its LuxR-type receptor, SdiA. Using this reporter system, if an exogenously -added compound is able to interact with CepR, this will affect the protein’s interaction with the cepI promoter region and alter β-galactosidase production. Enzyme production, and thereby CepR activity, is then measurable via the degradation of a colorimetric substrate for β-galactosidase. Using this new Ec-reporter, we observed robust activity of CepR in response to its native ligand C8-AHL, with an EC50 of 5 nM (Table 1).
To identify antagonists of CepR, we screened the AHL library (at 100 μM) in competition against the native ligand C8-AHL (at approximately twice its EC50 value, 0.01 μM) in the Ec-reporter. […] The active compounds were subjected to dose-response analyses in the Ec-reporter to obtain IC50 values and assess their relative potencies (Table 2; see Table S3 for complete screening data and Fig. S3 for dose-response curves). One general trend that we noted at the outset was the majority of the antagonists had acyl tails of similar or shorter overall length than CepR’s native ligand, C8-AHL. From this set, the strongest antagonists could be divided into two classes: (i) “short alkyl tail” AHLs or analogs thereof, and (ii) phenylacetanoyl HLs (PHLs). The discovery that the latter compounds were CepR antagonists was perhaps not surprising, as we have found substituted PHLs to strongly antagonize the majority of the LuxR-type receptors studied in our laboratory to date[22],[24],[29],[45],[46].
(§2) E. coli β-galactosidase reporter assays (derived from ref.[63]) and reagents used to obtain primary screening and dose-response data were performed as previously described[22],[60],[64], with the following modifications: E. coli JLD271 (∆sdiA) was co-transformed iteratively with pSC11-cepI and pJN105-cepR via electroporation. A single colony was used to start overnight cultures in LB medium + ampicillin (100 μg/mL) + gentamicin (15 μg/mL). A 1:10 dilution of overnight culture was grown in fresh medium to OD600 = 0.25. A sterile solution of L-arabinose in water (27 mM final concentration) was added to induce protein expression, after which cells were plated in 96-well plates containing varying concentrations of compound (200 μL total volume).
(§3) Cells were grown for 4 h, OD600 was read, 50 μL aliquots from each well were permeabilized in 200 μL Z Buffer, and then 150 μL of this mixture used to measure the cleavage of 25 μL of 4 mg/mL CPRG in phosphate buffered saline (PBS) at 37 °C until positive control wells developed a deep red color (~30 min). For all agonism assays, synthetic compound (100 μM) was screened alongside and compared to the native ligand, C8-AHL (100 μM). For all primary and dose-response antagonism assays, the concentration of native ligand utilized was 10 nM (approximately equal to twice its EC50 value). […] At least 3 separate trials were performed using unique cultures on separate days.

CepR [2] = target: T1, CepR; assay: CepR agonism in E. coli β-galactosidase reporter (Ec-reporter) JLD271 [pJN105-cepR + pSC11-cepI]; assay type: cell-based, B. cenocepacia; conditions: for Maximal Activation (%): activity for 100 μM C8-AHL set to 100%, error ±10%
Source text: as §1
We used the CepR Ec-reporter to perform a primary agonism screen at a single compound concentration (100 μM, or its solubility limit, indicated in Table S1). Thirty-one compounds displaying ≥70% agonistic activity in CepR (relative to C8-AHL) were identified and subjected to dose-response analyses using the Ec-reporter (Table I; see Table S2 for complete screening data and Fig. S3 for dose-response curves).
as §2, §3

[3] = screening conc. 100 μM, against 10 nM C8-AHL
[4] = Table S2, Ec-reporter, screening conc. 100 μM

| Compound | Inh% (100-Act%) (CepR [1]; [3]) [%] | Act% (CepR [2]; [4]) [%] | further results |
| --- | --- | --- | --- |
| O=C(Cc1cccc([N+](=O)[O-])c1)Nc1ccccc1 [Compound F25] | 12 | 3.0 | CepR antagonism in words (CepR [1]): dramatic losses in activity |
| O=C(Cc1ccc2ccccc2c1)N[C@H]1CCOC1=O [Compound E12] | -10 | 11 | – |
| O=C(Cc1ccc(-c2ccccc2)cc1)N[C@H]1CCOC1=O [Compound C18] | -20 | 1.4 | – |
| CC(C)(C)OC(=O)NCCCCC(=O)N[C@H]1CCOC1=O [Compound D1] | 11 | 16 | – |
| CCCC(=O)CC(=O)NC1CCSC1=O (centres unmarked) [3’O-C6-TL] | 4.0 | 1.6 | – |
| O=C(CCc1cccc([N+](=O)[O-])c1)N[C@H]1CCOC1=O [Compound E38] | -10 | 93 | EC50 (CepR [2]; Ec-reporter, agonism dose-response): 660 nM; Maximal Activation (%) (CepR [2]; Ec-reporter): 93% |
| COc1cccc(OCC(=O)N[C@H]2CCOC2=O)c1 [Compound E18] | 0.0 | 30 | – |
| CCCCCCCCCCCCCC(=O)N[C@H]1CCOC1=O [Compound C14-AHL, tetradecanoyl L-homoserine lactone, reference compound] | -10 | 49 | CepR agonism in words (CepR [2]; Ec-reporter): inactive; Maximal Activation (%) (CepR [2]; Ec-reporter): 49% |
| O=C(Cc1cccc([N+](=O)[O-])c1)NC1CCSC1=O (centres unmarked) [Compound F11] | 25 | 45.0 | – |
| CCCCCCCCCCCCn1nnc(CC(=O)O)n1 [PD-12, reference compound] | -40 | -7.6 | – |
| O=C(CCCc1c[nH]c2ccccc12)N[C@@H]1CCOC1=O [Compound B5] | -30 | 7.2 | – |
| COc1cccc(CC(=O)N[C@H]2CCOC2=O)c1 [Compound E2] | -10 | 28 | – |
| CCCc1ccc(C(=O)CCC(=O)N[C@H]2CCOC2=O)cc1 [Compound D7] | 15 | 18 | – |
| CCCCCCC(=O)N[C@H]1CCOC1=O [Compound C7-AHL, reference compound] | -10 | 106 | – |
| CCCCCCCCCC(=O)CC(=O)NCc1ccc(OC)cc1 [Compound F31] | 21 | 7.6 | – |
| CCCCCCCCCC(=O)CC(=O)Nc1ccccc1 [Compound V-06-018, reference compound] | – | – | Inh% (100-Act%) (CepR [1]; screening conc. 100 μM, against 10 nM C8-AHL, listed as V-06-01 8): -20%; Act% (CepR [2]; Table S2, Ec-reporter, screening conc. 100 μM, listed as V-06-01 8): 2.4% |
| Cc1ccc(OCC(=O)N[C@H]2CCOC2=O)cc1 [Compound E15] | -30 | 65 | – |
| O=C(Cc1ccccc1F)N[C@H]1CCOC1=O [Compound C4] | 3.0 | 0.1 | CepR antagonism in words (CepR [1]): inactive as antagonists |

| Compound | Inh% (100-Act%) (CepR [1]; [3]) [%] | Act% (CepR [2]; [4]) [%] | further results |
| --- | --- | --- | --- |
| meta-bromo-thiolactone [mBTL, reference compound] | -60 | 0.4 | – |
| CCCCCCCCc1ccc(C(=O)N[C@H]2CCOC2=O)cc1 [Compound D13] | 38 | 4.2 | – |
| O=C(Cc1ccccc1)N[C@H]1CCOC1=O [Control 5, reference compound] | 11 | – | Act% (CepR [2]; Table S2, Ec-reporter, screening conc. 100 μM, listed as Co n tro l 5): 9.8% |
| CCCCCCCCCC(=O)CC(=O)NCCc1ccccc1 [Compound F50] | – | – | Inh% (100-Act%) (CepR [1]; screening conc. 50 μM): 1.0%; Act% (CepR [2]; Table S2, Ec-reporter, screening conc. 50 μM): 12% |
| O=C(CCc1cccs1)N[C@H]1CCOC1=O [Compound D3] | -40 | 87 | – |
| O=C(N[C@H]1CCOC1=O)c1cnn(-c2ccccc2)c1C(F)(F)F [Compound D9] | 0.0 | 14 | – |
| O=C(CCCc1ccccc1)N[C@H]1CCOC1=O [Control 6, reference compound] | 3.0 | 80 | – |
| O=C(N[C@H]1CCOC1=O)c1ccc(Oc2ccc(Br)cc2)cc1 [Compound Q10] | -40 | 64 | – |
| CCCCCCCCCC(=O)CC(=O)NCc1ccccc1F [Compound F26] | 20 | -1.2 | – |
| O=C(Cc1ccc(Br)cc1)NC1CCSC1=O (centres unmarked) [Compound F10] | 6.0 | 0.5 | CepR antagonism in words (CepR [1]): dramatic losses in activity |
| O=C(COc1ccc(OC(F)(F)F)cc1)N[C@H]1CCOC1=O [Compound D15] | -20 | 46 | – |
| CC(C)(C)OC(=O)c1ccc(C(=O)N[C@H]2CCOC2=O)cc1 [Compound Q13] | 11 | 6.8 | – |
| O=C(Cc1ccc(SC(F)(F)F)cc1)N[C@H]1CCOC1=O [Compound E8] | 0.0 | 14 | – |
| Nc1ccc(CC(=O)N[C@H]2CCOC2=O)cc1 [Compound C21] | -20 | 21 | – |
| O=C(N[C@H]1CCOC1=O)c1ccc(Cl)cc1 [Compound Q4] | -20 | 49 | – |
| O=C(COc1ccc([N+](=O)[O-])cc1)N[C@H]1CCOC1=O [Compound E24] | -10 | 75 | – |
| CCCCCCCC(=O)CC(=O)N[C@H]1CCOC1=O [3’O-C10-AHL, reference compound] | -60 | 110 | EC50 (CepR [2]; Table S2, Ec-reporter): 2300 nM |
| O=C(N[C@H]1CCOC1=O)c1ccccc1 [Compound B8] | 1.0 | 10 | – |
